Laboratory results published in the CombiSolv-Exp solvation set (Vermeire and Green 2021).

Experiment: solvent given as SMILES

CCCCCC
Details	solvation free energy, 298 K [kcal/mol]
in BrC(Br)C(Br)Br	-2.72
in Brc1cccc2ccccc12	-3.07
in Brc1ccccc1	-3.65
in C1=Cc2ccccc2C1	-3.49
in C1CCC(C2CCCCC2)CC1	-3.73
in C1CCCCC1	-4.06
in C1CCOC1	-3.9
in C1COCCO1	-3.22
in C=CCCCC	-4.02
in C=CCCCCCC	-3.93
in C=CCCCCCCCC	-3.92
in C=CCCCCCCCCCCCCCC	-3.59
in CC1CCS(=O)(=O)C1	-2.13
in CC1COC(=O)O1	-2.04
in CC#N	-2.63
in CC(=O)CC(C)C	-3.59
in CC(=O)N(C)C	-2.76
in CC(=O)O	-2.89
in CC(=O)OCc1ccccc1	-3.02
in CC(=O)c1ccccc1	-3.04
in CC(C)(C)Cl	-4
in CC(C)(C)O	-3.33
in CC(C)=O	-3.26
in CC(C)CCCC(C)CCCC(C)CCCCC(C)CCCC(C)CCCC(C)C	-3.47
in CC(C)CCO	-3.31
in CC(C)CCl	-3.94
in CC(C)CO	-3.36
in CC(C)O	-3.21
in CC(C)OC(C)C	-3.98
in CC(O)CO	-1.94
in CCBr	-4.08
in CCC#N	-3.13
in CCC(C)(C)C	-4.04
in CCC(C)(C)OC	-3.92
in CCC(C)=O	-3.44
in CCC(C)Cl	-3.98
in CCCC#N	-3.07
in CCCC(=O)OCC	-3.64
in CCCC(C)=O	-3.52
in CCCCC	-4.11
in CCCCC#N	-3.27
in CCCCC(CC)COC(=O)CCCCC(=O)OCC(CC)CCCC	-3.33
in CCCCC(CC)COC(=O)c1ccccc1C(=O)OCC(CC)CCCC	-3.13
in CCCCCC#N	-3.28
in CCCCCC(C)=O	-3.54
in CCCCCCC	-3.97
in CCCCCCCC	-3.92
in CCCCCCCCC	-3.86
in CCCCCCCCC=CCCCCCCCC(=O)OCC(COC(=O)CCCCCCCC=CCCCCCCCC)OC(=O)CCCCCCCC=CCCCCCCCC	-3.45
in CCCCCCCCCC	-3.83
in CCCCCCCCCCCC	-3.73
in CCCCCCCCCCCCCC	-3.6
in CCCCCCCCCCCCCCCC	-3.64
in CCCCCCCCCCCCO	-3.31
in CCCCCCCCCOC(=O)c1ccccc1C(=O)OCCCCCCCCC	-3.23
in CCCCCCCCN(CCCCCCCC)CCCCCCCC	-3.49
in CCCCCCCCO	-3.36
in CCCCCCCO	-3.33
in CCCCCCO	-3.39
in CCCCCCOC(C)=O	-3.61
in CCCCCN(CCCCC)CCCCC	-3.67
in CCCCCO	-3.33
in CCCCCl	-3.91
in CCCCN(C=O)CCCC	-3.25
in CCCCN(CCCC)CCCC	-3.6
in CCCCO	-3.32
in CCCCOC(=O)c1ccccc1C(=O)OCCCC	-3.24
in CCCCOC(C)=O	-3.59
in CCCCOCCCC	-3.87
in CCCO	-3.16
in CCN1CCCC1=O	-2.88
in CCN(CC)C(C)=O	-3.11
in CCN(CC)CC	-4.01
in CCNC(C)=O	-2.92
in CCNC=O	-2.69
in CCO	-3.1
in CCOC(=O)c1ccccc1C(=O)OCC	-2.73
in CCOC(C)(C)C	-3.93
in CCOC(C)=O	-3.46
in CCOCC	-3.99
in CCOCCO	-2.96
in CCOCCOCCOCC	-3.42
in CCOc1ccccc1	-3.49
in CN1CCCC1=O	-2.65
in CN1CCCCC1=O	-2.78
in CN1CCN(C)C1=O	-2.51
in CN(C)C=O	-2.62
in CN(C)P(=O)(N(C)C)N(C)C	-2.98
in CNC(C)=O	-2.74
in CNC=O	-2.36
in CO	-2.82
in COC(C)(C)C	-4.01
in COC(C)=O	-3.3
in COCCO	-2.7
in COCCOCCOCCOCCOC	-2.82
in COc1ccccc1	-3.41
in CS(C)=O	-1.83
in Cc1ccc(C)cc1	-3.87
in Cc1cccc2ccccc12	-3.36
in Cc1cccc(C)c1	-3.85
in Cc1cccc(O)c1	-2.91
in Cc1ccccc1	-3.87
in Cc1ccccn1	-3.5
in ClC(Cl)(Cl)Cl	-4.08
in ClC(Cl)C(Cl)Cl	-3.35
in ClC(Cl)Cl	-3.94
in ClCCCl	-3.45
in ClCCl	-3.75
in Clc1cccc2ccccc12	-3.23
in Clc1ccccc1	-3.85
in FC(F)(F)C(F)(F)C(F)(F)C(F)(F)C(F)(F)C(F)(F)C(F)(F)C(F)(F)F	-2.53
in FC(F)(F)C(F)(F)C(F)(F)C(F)(F)C(F)(F)C(F)(F)F	-2.67
in Fc1ccccc1	-3.88
in ICI	-2.2
in N#CCCCC#N	-1.5
in N#CCCCCC#N	-1.86
in N#CCCO	-1.84
in N#CCCOCCC#N	-0.89
in N#CCc1ccccc1	-2.62
in N#Cc1ccccc1	-3.13
in NC=O	-0.53
in NCCN	-1.85
in NCCO	-0.77
in NCc1ccccc1	-2.92
in Nc1ccccc1	-2.36
in O=C1CCCCC1	-3.37
in O=C1CCCO1	-2.22
in O=C(O)C(Cl)Cl	-2.74
in O=CN1CCOCC1	-1.98
in O=Cc1ccco1	-2.37
in O=S=O	-3.18
in OC1CCCCC1	-3.1
in OCC1CCCO1	-2.62
in OCCCCCO	-2.03
in OCCCCO	-1.88
in OCCCO	-1.54
in OCCCl	-2.22
in OCCOCCO	-1.43
in OCCOCCOCCO	-1.54
in OCCOCCOCCOCCO	-1.65
in OCCS	-1.9
in OCCc1ccccc1	-2.75
in OCc1ccccc1	-2.66
in OCc1ccco1	-2.27
in S=C=S	-4.03
in c1ccc2c(c1)CCCC2	-3.65
in c1ccc2ncccc2c1	-3.1
in c1ccc(C2CCCCC2)cc1	-3.62
in c1ccccc1	-3.84
in c1ccncc1	-3.27
